Usually AUC stands for concentration integrated over time.

Each structure is given as a SMILES string. Like-named read-outs stand apart in the source and are kept apart here.

The test system of one data set is P. berghei. Kind of data set: Merosome transfer from treated HepG2 cultures to mice. The class given is in vivo, Plasmodium berghei. The settings on record: HepG2 cultures treated with 1 nM, washed. How it is done:
To infect cells, freshly isolated PbmCherryLuci salivary gland sporozoites were resuspended in complete medium and 10^4 sporozoites added to each well (MOI 0.34) before spinoculation at 500 x g for 3 min. Sporozoites were allowed to infect cells for 3 h before washing with complete medium. […] The compound containing medium was changed the next morning before 48 hpi to prevent removal of detached cells and merosomes in the supernatant at later time points ([Sturm et al., 2006]). To measure inhibition of parasitised cell detachment in the treated cultures, each well was imaged for mCherry at 20x magnification using an Opera Phenix High Content Screening System (PerkinElmer) at 48 hpi (live cell microscopy) and again at 65 hpi following fixation with 4% formalin in PBS, and the number of mCherry^+ parasites counted using the Columbus Image Data Storage and Analysis System (PerkinElmer). Cell detachment was calculated as the percent of parasites lost from the monolayer between 48 – 65 hpi. The culture supernatant containing merosomes and detached parasitised cells from each well was collected at 65 hpi, washed once in complete media by centrifugation at 500 x g for 3 min, then i.v. injected into individual male Swiss mice. Daily Giemsa stained thin blood smears were monitored for patent blood infection as described previously.

A short description of data set [1]: Bioanalytical determination of WM382 in mouse blood by LC-MS/MS. The class given is in vivo. The settings on record: SCID (huSCID), whole blood, po, huSCID mice. Here is the method:
Serial samples of peripheral blood (25 μL) were taken from the mice of the efficacy experiment in the murine P. falciparum SCID model by tail puncture at 1, 2, 4, 6 and 24 h post first and last drug administration. The samples were immediately lysed by mixing with 25 μL of water, immediately frozen on dry ice and stored at −80°C until bioanalysis (carried out at SBQ, Reinach, Switzerland). The compounds were extracted from 10 μL of each lysate with 50 μL acetonitrile containing the internal standards (reserpine at 100 ng/mL). After a centrifugation step at 50000 g for 10 min, an aliquot of 50 μL of the supernatant was transferred to an autosampler vial and analyzed. The compounds were quantified by LC-MS/MS in the selected reaction monitoring mode using HESI ionization in positive ion mode, using a TSQ Quantum Access Mass spectrometer (Thermo Fisher Scientific, San Jose, CA, USA). The compound concentration versus time data was determined.

Take `CCC1(CC)CC(=O)N([C@@H]2CCOc3ccc(C(=O)N[C@H]4CC(C)(C)Oc5ccccc54)cc32)C(=N)N1` [WM382]: the “blood infection of naive mice after i.v. injection of 65 hpi supernatants” value with P. berghei is “Blood infection was initiated in mice”. Moreover, the exposure (AUC) in data set [1] (1 mg/kg, oral daily dose 1 mg/kg, read-out: AUC dose 1) amounted to 0.06 ± 0.03 µM·h; in data set [1] (1 mg/kg, oral daily dose 1 mg/kg, read-out: AUC dose 4) it was 0.1 ± 0.04 µM·h; in data set [1] (3 mg/kg, oral daily dose 3 mg/kg, read-out: AUC dose 1) it was 0.5 ± 0.18 µM·h; in data set [1] (3 mg/kg, oral daily dose 3 mg/kg, read-out: AUC dose 4) it was 0.37 ± 0.21 µM·h; in data set [1] (10 mg/kg, oral daily dose 10 mg/kg, read-out: AUC dose 1), 2.61 ± 1 µM·h; in data set [1] (10 mg/kg, oral daily dose 10 mg/kg, read-out: AUC dose 4), 2.62 ± 1.03 µM·h. For the same molecule, the AUC was 7.04 ± 1.53 µM·h in data set [1] (30 mg/kg, oral daily dose 30 mg/kg, read-out: AUC dose 1) and 5.17 ± 1.22 µM·h in data set [1] (30 mg/kg, oral daily dose 30 mg/kg, read-out: AUC dose 4).
